The text below walks through data of the OPERA property sets (Mansouri et al. 2018).

Converted amounts (≈) assume the structure as drawn.

The conditions of this data set: for solubility: 25 °C.

For the compound `NS(=O)(=O)c1ccc(S(=O)(=O)CCCCO)cc1`, the solubility (in general, the dissolved amount per volume that the medium holds) turned out to be 7.16 mM (≈ 2100 µg/mL).

Consider `CC(=O)OCCCCCc1ccc(S(N)(=O)=O)cc1`, for which the logP (usually a log measure of how a compound divides between an organic and an aqueous phase) was found to be 1.86.

For the compound `CC(=O)OCCCS(=O)(=O)c1ccc(S(N)(=O)=O)s1`, the log partition coefficient (logP) amounted to 0.17.

In the case of `NS(=O)(=O)c1ccc(S(=O)(=O)CCCO)c(F)c1`, the logP is -0.41 and the solubility was 22.2 mM (≈ 6600 µg/mL).

In turn, `NS(=O)(=O)c1ccc(SCCCO)s1` registered a logP of 0.85.

For the compound `Nc1cc(S(N)(=O)=O)ccc1S(=O)(=O)CCCO`, the log partition coefficient (logP) was -0.48.

For the compound `CC(=O)OCCCc1ccc(S(N)(=O)=O)cc1`, the log partition coefficient (logP) turned out to be 0.98.

`COC(=O)c1cc(S(N)(=O)=O)ccc1S(=O)(=O)CCCO`: the logP was -0.3.

`NS(=O)(=O)c1ccc(S(=O)(=O)CCO)cc1`: the logP was -0.85 and the solubility was found to be 24.9 mM (≈ 6600 µg/mL).

On to `NS(=O)(=O)c1ccc(S(=O)(=O)CCCO)cc1`, for which the logP was -0.64 and the solubility was 25.8 mM (≈ 7200 µg/mL).

`NS(=O)(=O)c1ccc(SCCCCO)cc1` showed a logP of 0.93 and a solubility of 3.06 mM (≈ 800 µg/mL).

The compound `NS(=O)(=O)c1ccc(CCCCCO)cc1` showed a logP of 1.04 and a solubility of 10.7 mM (≈ 2600 µg/mL).

As to `COC(=O)c1cc(S(N)(=O)=O)ccc1S(=O)(=O)CCO`, the log partition coefficient (logP) was -0.47.

`NS(=O)(=O)c1ccc(S(=O)(=O)CCCCO)s1` displayed a logP of -0.34.

With `NS(=O)(=O)c1ccc(SCCCO)c(Cl)c1`, the logP turned out to be 1.59.

As for `NS(=O)(=O)c1ccc(S(=O)(=O)CCCCO)c(F)c1`, the logP was -0.26.

Regarding `NS(=O)(=O)c1ccc(SCCCO)c([N+](=O)[O-])c1`, the logP turned out to be 0.96 and the solubility is 0.342 mM (≈ 100 µg/mL).

As for `COC(=O)c1cc(S(N)(=O)=O)ccc1SCCCO`, the logP stood at 0.74.

On to `NS(=O)(=O)c1ccc(SCCO)cc1`, for which the log partition coefficient (logP) stood at 0.36 and the solubility stood at 15 mM (≈ 3500 µg/mL).

Compound `NS(=O)(=O)c1ccc(SCCCO)c(F)c1` registered a logP of 0.99 and a solubility of 3.39 mM (≈ 900 µg/mL).

Turning to `CC(C)CNCCS(=O)(=O)c1ccc(S(N)(=O)=O)cc1`, the log partition coefficient (logP) is 0.23.

Compound `NS(=O)(=O)c1ccc(S(=O)(=O)CCO)c(F)c1` came in with a logP of -0.6 and a solubility of 11.6 mM (≈ 3300 µg/mL).

Compound `NS(=O)(=O)c1ccc(S(=O)(=O)CCCO)s1` came in with a logP of -0.36.

Compound `CC(=O)OCCS(=O)(=O)c1ccc(S(N)(=O)=O)s1` displayed a lipophilicity (logP) of 0.11.

`NS(=O)(=O)c1ccc(SCCCCO)s1` yielded a lipophilicity (logP) of 0.95 and a solubility of 34.8 mM (≈ 9300 µg/mL).

`NS(=O)(=O)c1ccc(CCCO)cc1`: the lipophilicity (logP) came out at 0.17 and the solubility was 92.9 mM (≈ 20000 µg/mL).

As for `CC(C)(O)CCSc1ccc(S(N)(=O)=O)cc1`, the logP was 1.4 and the solubility was 1.45 mM (≈ 400 µg/mL).

For the compound `Nc1cc(S(N)(=O)=O)ccc1S(=O)(=O)CCO`, the logP was -0.6.

Consider `COCC(=O)OCCCS(=O)(=O)c1ccc(S(N)(=O)=O)s1`, for which the logP was -0.14.

With `NS(=O)(=O)c1ccc(SCCCCO)c(F)c1`, the logP was 1.28 and the solubility turned out to be 3.58 mM (≈ 1000 µg/mL).

On to `CC(C)(O)CCS(=O)(=O)c1ccc(S(N)(=O)=O)cc1`, for which the logP was -0.09 and the solubility stood at 11.4 mM (≈ 3500 µg/mL).

`NS(=O)(=O)c1ccc(SCCO)c(F)c1` came in with a logP of 0.72 and a solubility of 23.9 mM (≈ 6000 µg/mL).

For the compound `NS(=O)(=O)c1ccc(SCCCO)cc1`, the lipophilicity (logP) worked out at 0.8 and the solubility was 5.66 mM (≈ 1400 µg/mL).

In turn, `NS(=O)(=O)c1ccc(CCCCO)cc1` showed a logP of 0.57 and a solubility of 64.1 mM (≈ 14700 µg/mL).

`NS(=O)(=O)c1ccc(SCCCCCO)cc1` registered a lipophilicity (logP) of 1.04 and a solubility of 2.18 mM (≈ 600 µg/mL).

`NS(=O)(=O)c1ccc(SCCO)c([N+](=O)[O-])c1` registered a logP of 0.38 and a solubility of 1.8 mM (≈ 500 µg/mL).
